Laboratory results as given in the NIST ThermoML archive (doi:10.1016/j.fluid.2016.10.027).
Numbers after ± are expanded uncertainties.

Columns and labels:
[1] = 101.33 kPa, Liquid, Vibrating tube method
[2] = refractive index (Na D-line) (dimensionless); settings: 101.33 kPa, Liquid, Standard Abbe refractometry

CCC(C)OC(C)=O (configuration not stated) [1-methylpropyl ethanoate]
mass density ([1]; 293.15 K): 871 ± 2 kg/m3 | refractive index ([2]; 293.15 K): 1.3876 ± 0.0006

CC(=O)O [acetic acid]
mass density ([1]; 298.15 K): 1044.6 ± 2 kg/m3 | refractive index ([2]; 298.15 K): 1.3703 ± 0.0005

CCC(C)O (configuration not stated) [butan-2-ol]
mass density ([1]; 298.15 K): 804 ± 2 kg/m3 | refractive index ([2]; 298.15 K): 1.3962 ± 0.0005

O [water]
refractive index ([2]; 298.15 K): 1.332 ± 0.0005
